This note sets out measurements from ChEMBL document CHEMBL5038653, “A Brain-Penetrant and Bioavailable Pyrazolopiperazine BACE1 Inhibitor Elicits Sustained Reduction of Amyloid β In Vivo” (ACS Med Chem Lett, 2022).

Structures are written as SMILES. In brackets after ≈: the same amount, converted by molar mass. Activity calls are given as the source filed them.

The target of data set [1] is T1, Cytochrome P450 3A4 (Homo sapiens, UniProt P08684). The experiment in a line: Inhibition of human CYP3A4 by fluorescence plate reader analysis. In kind it is ADME.
Data set [2] concerns the target Voltage-gated inwardly rectifying potassium channel KCNH2 (Homo sapiens, UniProt Q12809). The experiment in a line: Inhibition of hERG expressed in HEK293 cells at -80 mV holding potential by automated patch-clamp method. In kind it is toxicity, cell-based. In general terms: hERG is a cardiac potassium channel; its block is linked to QT prolongation.
The target of data set [3] is T1, Cytochrome P450 3A4. Briefly: Inhibition of human CYP3A4 using midazolam as substrate by fluorescence plate reader analysis. Conditions: for inhibition (INH): human. It is filed as ADME.
In a further data set the target is Beta-secretase 1 (Homo sapiens, UniProt P56817). Briefly: Inhibition of BACE1 (1 to 454 residues) (unknown origin) using APP harboring Swedish Lys/Met mutant-derived peptide as substrate by FRET assay.
A further data set deals with hERG (KCNH2) (Homo sapiens, UniProt Q12809). The experiment in a line: Inhibition of hERG expressed in HEK293 cells at 3 uM at -80 mV holding potential by automated patch-clamp method. It is filed as toxicity, cell-based. The following applies: HEK293 cells expressing hERG.
The next data set deals with MDR1. Briefly: Efflux ratio of apparent permeability in dog MDCK-MDR1 cells. In kind it is ADME, cell-based, Canis lupus familiaris.
A short description of data set [4]: Metabolic stability in mouse liver microsomes assessed as metabolite formation after 15 mins in presence of NADPH by LC-MS analysis. It is filed as ADME, Microsome. The following applies: 0.25 h. For orientation: Liver microsomes are vesicles of endoplasmic reticulum, rich in cytochrome P450 enzymes.
Data set [5] in a line: Dissociation constant, pKa of the compound by fast UV-spectrometric titration analysis. In kind it is physicochemical.
Data set [6] in a line: Metabolic stability in human liver microsomes assessed as metabolite formation after 15 mins in presence of NADPH by LC-MS analysis. The following applies: 0.25 h. In kind it is ADME, Microsome.
A short description of data set [7]: Ratio of apparent permeability across apical to basolateral side in the presence of P-gp inhibitor elacridar to the absence of P-gp inhibitor elacridar in dog MDCK-MDR1 cells at 5 uM incubated for 120 mins. It is filed as ADME, cell-based, Canis lupus familiaris. The following applies: 2 h.
Data set [8] can be described thus: Free drug concentration in rat brain measured after 5 hrs by HPLC-MS/MS method. It is filed as ADME, tissue-based.
In data set [9] the target is T1, Cytochrome P450 3A4. The experiment in a line: Time dependent inhibition of human CYP3A4 using testosterone as substrate by fluorescence plate reader analysis. It is filed as ADME.
Data set [10] in a line: Half life in Beagle dog at 2.5 mg/kg, po. It is filed as ADME, organism-based, Canis lupus familiaris. Conditions: in vivo.
The target in data set [11] is T1, Cytochrome P450 3A4. Briefly: Inhibition of human CYP3A4 using testosterone as substrate by fluorescence plate reader analysis. It is filed as ADME.
The target in a further data set is Cytochrome P450 2C19 (Homo sapiens, UniProt P33261). Briefly: Inhibition of human CYP2C19 by fluorescence plate reader analysis. It is filed as ADME.
A further data set concerns the target T2, Cytochrome P450 2C8 (Homo sapiens, UniProt P10632).
T2 sequence (P10632 whole entry): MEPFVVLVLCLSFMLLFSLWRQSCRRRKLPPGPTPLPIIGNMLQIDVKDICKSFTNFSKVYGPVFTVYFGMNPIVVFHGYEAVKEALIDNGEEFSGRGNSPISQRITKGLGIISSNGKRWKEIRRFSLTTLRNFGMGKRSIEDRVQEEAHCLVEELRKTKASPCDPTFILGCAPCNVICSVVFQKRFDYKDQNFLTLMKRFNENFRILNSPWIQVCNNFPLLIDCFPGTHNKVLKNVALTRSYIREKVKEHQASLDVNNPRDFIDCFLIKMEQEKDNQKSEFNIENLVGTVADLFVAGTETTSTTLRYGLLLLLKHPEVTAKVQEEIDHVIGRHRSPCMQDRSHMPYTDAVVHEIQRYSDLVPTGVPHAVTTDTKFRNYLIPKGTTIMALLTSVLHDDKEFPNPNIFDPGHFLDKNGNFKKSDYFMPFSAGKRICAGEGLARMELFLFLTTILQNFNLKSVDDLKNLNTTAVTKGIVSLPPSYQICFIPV
Briefly: Inhibition of human CYP2C8 by fluorescence plate reader analysis. In kind it is ADME.

A further data set has as its target Cytochrome P450 2C9 (Homo sapiens, UniProt P11712). Briefly: Inhibition of human CYP2C9 by fluorescence plate reader analysis. In kind it is ADME.
The next data set deals with T3, Cytochrome P450 1A2 (Homo sapiens, UniProt P05177).
T3 sequence (P05177 whole entry): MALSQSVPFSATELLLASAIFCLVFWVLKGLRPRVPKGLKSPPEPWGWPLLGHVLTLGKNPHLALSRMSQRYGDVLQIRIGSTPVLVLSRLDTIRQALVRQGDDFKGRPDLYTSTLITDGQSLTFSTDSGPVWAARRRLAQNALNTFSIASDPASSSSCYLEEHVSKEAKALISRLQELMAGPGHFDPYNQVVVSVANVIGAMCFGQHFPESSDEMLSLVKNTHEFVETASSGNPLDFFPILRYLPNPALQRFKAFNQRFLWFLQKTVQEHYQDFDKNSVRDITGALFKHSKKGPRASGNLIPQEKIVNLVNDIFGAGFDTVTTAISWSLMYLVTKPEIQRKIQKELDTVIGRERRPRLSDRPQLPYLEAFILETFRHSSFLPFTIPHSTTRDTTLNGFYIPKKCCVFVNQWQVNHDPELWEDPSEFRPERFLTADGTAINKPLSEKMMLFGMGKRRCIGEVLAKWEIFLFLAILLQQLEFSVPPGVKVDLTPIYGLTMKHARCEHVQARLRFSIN
Briefly: Inhibition of human CYP1A2 by fluorescence plate reader analysis. In kind it is ADME.

Data set [12] can be described thus: Total plasma concentration in Beagle dog at 2.5 mg/kg, po. In kind it is ADME, organism-based, Canis lupus familiaris. The following applies: in vivo.
Data set [13] in a line: Free drug concentration in mouse plasma measured after 4.5 hrs by HPLC-MS/MS method. In kind it is ADME, cell-free.
Data set [14] in a line: Free drug concentration in dog plasma measured after 4.5 hrs by HPLC-MS/MS method. It is filed as ADME, cell-free, Canis lupus familiaris.
The next data set concerns Canis lupus familiaris. The experiment in a line: In vivo inhibition of BACE1 in Beagle dog assessed as reduction of amyloid beta (1 to 42 residues) levels in CSF at 2.5 mg/kg, po measured after 24 hrs by electrochemiluminescence assay. In kind it is functional, organism-based.
The nature of data set [15]: In vivo inhibition of BACE1 in Beagle dog assessed as reduction of amyloid beta (1 to 42 residues) levels in CSF administered orally by electrochemiluminescence assay. It is filed as functional, organism-based, Canis lupus familiaris. Conditions: Canis lupus familiaris, Beagle.
Data set [16] is described as follows: Free drug concentration in human plasma measured after 4.5 hrs by HPLC-MS/MS method. It is filed as ADME, cell-free.

Sequence of Beta-secretase 1 (P56817 whole entry, the tested form may be a part): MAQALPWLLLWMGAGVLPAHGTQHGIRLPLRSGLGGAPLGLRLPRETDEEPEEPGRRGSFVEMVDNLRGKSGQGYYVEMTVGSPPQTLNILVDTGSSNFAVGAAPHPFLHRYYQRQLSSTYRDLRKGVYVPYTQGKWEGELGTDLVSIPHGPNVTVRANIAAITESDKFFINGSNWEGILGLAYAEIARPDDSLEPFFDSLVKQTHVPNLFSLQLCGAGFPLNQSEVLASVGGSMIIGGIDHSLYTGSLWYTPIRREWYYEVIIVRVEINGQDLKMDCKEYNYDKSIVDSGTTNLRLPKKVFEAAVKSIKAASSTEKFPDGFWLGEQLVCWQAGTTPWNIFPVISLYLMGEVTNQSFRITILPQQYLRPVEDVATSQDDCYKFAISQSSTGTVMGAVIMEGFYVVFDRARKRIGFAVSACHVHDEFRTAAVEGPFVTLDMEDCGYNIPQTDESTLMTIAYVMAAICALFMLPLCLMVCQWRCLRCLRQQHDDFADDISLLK
Sequence of Voltage-gated inwardly rectifying potassium channel KCNH2 (Q12809 whole entry): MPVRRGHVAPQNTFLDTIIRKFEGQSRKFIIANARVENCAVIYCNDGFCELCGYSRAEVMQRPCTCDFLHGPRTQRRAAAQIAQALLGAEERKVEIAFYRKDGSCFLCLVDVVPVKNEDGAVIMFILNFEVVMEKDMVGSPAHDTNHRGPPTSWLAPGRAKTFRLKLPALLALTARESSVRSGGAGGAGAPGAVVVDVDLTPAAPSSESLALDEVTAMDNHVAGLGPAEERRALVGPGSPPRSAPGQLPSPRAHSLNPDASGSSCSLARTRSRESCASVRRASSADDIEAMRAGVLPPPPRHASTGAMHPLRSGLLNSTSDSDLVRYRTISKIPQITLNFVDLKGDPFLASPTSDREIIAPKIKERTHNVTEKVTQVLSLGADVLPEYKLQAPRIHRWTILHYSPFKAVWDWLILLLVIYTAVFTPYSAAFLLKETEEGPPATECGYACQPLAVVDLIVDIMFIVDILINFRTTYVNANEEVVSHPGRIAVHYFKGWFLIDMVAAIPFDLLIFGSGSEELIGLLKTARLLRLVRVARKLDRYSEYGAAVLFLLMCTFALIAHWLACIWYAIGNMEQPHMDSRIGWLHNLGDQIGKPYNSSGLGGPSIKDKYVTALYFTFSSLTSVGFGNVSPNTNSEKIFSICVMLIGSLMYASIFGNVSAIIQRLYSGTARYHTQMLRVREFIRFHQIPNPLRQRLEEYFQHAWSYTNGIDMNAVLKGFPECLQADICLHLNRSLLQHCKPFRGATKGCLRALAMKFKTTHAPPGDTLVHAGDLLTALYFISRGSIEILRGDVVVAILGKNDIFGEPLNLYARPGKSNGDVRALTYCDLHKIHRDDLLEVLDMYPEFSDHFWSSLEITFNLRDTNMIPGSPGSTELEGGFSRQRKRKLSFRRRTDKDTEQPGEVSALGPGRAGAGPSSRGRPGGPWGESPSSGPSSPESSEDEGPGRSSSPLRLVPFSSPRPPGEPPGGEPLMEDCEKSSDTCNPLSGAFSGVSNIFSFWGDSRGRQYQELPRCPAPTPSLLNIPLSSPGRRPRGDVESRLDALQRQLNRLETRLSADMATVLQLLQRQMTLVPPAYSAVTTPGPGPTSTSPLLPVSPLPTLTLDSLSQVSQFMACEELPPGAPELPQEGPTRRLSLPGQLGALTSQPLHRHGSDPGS
T1 sequence (P08684 whole entry): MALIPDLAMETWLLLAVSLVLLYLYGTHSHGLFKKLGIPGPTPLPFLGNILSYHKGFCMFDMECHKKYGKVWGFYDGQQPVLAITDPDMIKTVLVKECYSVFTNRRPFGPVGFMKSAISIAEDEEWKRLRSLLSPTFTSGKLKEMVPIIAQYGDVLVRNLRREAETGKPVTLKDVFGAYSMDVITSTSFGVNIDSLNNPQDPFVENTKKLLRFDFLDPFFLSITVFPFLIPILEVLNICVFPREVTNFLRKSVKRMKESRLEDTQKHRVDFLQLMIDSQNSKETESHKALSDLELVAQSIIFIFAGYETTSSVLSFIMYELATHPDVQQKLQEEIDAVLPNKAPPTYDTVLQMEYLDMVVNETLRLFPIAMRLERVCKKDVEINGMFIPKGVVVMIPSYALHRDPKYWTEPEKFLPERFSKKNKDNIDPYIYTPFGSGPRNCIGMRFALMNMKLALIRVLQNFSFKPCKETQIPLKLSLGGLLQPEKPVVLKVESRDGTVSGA
Sequence of hERG (KCNH2) (Q12809 whole entry): as the sequence (Q12809 whole entry) above
Sequence of Cytochrome P450 2C19 (P33261 whole entry): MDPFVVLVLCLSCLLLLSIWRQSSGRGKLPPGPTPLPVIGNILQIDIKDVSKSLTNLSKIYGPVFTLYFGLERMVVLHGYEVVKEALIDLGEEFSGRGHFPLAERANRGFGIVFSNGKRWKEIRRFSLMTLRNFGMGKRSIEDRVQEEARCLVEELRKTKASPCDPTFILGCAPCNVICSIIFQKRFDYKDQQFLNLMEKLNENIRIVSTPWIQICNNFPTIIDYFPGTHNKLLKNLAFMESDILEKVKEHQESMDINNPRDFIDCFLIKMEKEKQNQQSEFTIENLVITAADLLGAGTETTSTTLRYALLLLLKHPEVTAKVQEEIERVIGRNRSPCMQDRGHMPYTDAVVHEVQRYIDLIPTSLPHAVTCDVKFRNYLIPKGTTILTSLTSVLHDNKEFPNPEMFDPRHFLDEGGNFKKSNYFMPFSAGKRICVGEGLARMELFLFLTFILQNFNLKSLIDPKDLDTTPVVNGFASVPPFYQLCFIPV
Sequence of Cytochrome P450 2C9 (P11712 whole entry): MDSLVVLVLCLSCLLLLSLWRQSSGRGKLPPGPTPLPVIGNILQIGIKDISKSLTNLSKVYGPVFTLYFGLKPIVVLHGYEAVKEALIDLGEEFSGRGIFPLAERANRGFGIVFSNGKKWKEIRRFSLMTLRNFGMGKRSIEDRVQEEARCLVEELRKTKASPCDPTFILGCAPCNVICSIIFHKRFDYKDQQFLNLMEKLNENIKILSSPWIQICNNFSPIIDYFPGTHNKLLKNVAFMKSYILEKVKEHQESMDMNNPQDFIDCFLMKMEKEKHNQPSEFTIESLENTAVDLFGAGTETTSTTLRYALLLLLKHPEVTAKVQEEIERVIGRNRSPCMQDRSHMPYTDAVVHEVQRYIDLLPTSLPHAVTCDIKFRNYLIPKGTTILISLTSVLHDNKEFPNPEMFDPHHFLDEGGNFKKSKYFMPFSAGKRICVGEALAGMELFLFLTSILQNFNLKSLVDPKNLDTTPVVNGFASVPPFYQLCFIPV

One may read the IC50 as the concentration needed to halve the response being measured. With `C[C@@]1(c2cc(NC(=O)c3ccc(Cl)cn3)ccc2F)Cn2c(C#N)cnc2C(N)=N1`, the IC50 was 900 nM against Cytochrome P450 3A4 [1], over 10000 nM in data set [2] and 2.6 nM on Beta-secretase 1. The “inhibition (INH)” value against Cytochrome P450 3A4 [3] is on record as “Active”.

The term inhibition denotes the relative decrease from the control value, in per cent. A word on the efflux ratio: it is the permeability from basolateral to apical divided by that in the opposite direction, in the common usage. As for `C[C@@]1(c2cc(NC(=O)c3ccc(C#N)cn3)ccc2F)Cn2nc(C#N)cc2C(N)=N1`, the IC50 in data set [2] is 4600 nM; at Beta-secretase 1 it was 1.7 nM. Also, at hERG (KCNH2), the inhibition at 3 µM worked out at 71%. In addition, in the data set with MDR1, the efflux ratio worked out at 15.2.

Take `Cc1nc(C(=O)Nc2ccc(F)c([C@]3(C)Cn4nc(C#N)cc4C(N)=N3)c2)co1`: the concentration for half-maximal inhibition (IC50) was over 10000 nM in data set [2] and 4.5 nM against Beta-secretase 1. In the data set on MDR1, the efflux ratio was 19.4.

`C[C@@]1(c2cc(NC(=O)c3cnc(OCF)cn3)ccc2F)Cn2nc(C#N)cc2C(N)=N1`: the half-inhibitory concentration (IC50) is over 10000 nM in [2] and 2.3 nM against Beta-secretase 1. In addition, the efflux ratio with MDR1 is 8.5.

With `CC(C)(C)OC(=O)Nc1ccc(F)c([C@]2(C)Cn3c(C#N)cnc3C(N)=N2)c1`, the “inhibition (INH)” value on Cytochrome P450 3A4 [3] is “Active”.

Take `C[C@@]1(c2cc(NC(=O)c3ccc(OC(F)F)cn3)ccc2F)Cn2nc(C#N)cc2C(N)=N1`: the results for the IC50 (in [2]; against Beta-secretase 1) were 6600 nM and 1.4 nM, respectively. The efflux ratio in the data set with MDR1 worked out at 7.

As for `COc1cnc(C(=O)Nc2ccc(F)c([C@]3(C)Cn4c(C#N)cnc4C(N)=N3)c2)cn1`, the IC50 is 3100 nM against Cytochrome P450 3A4 [1], over 10000 nM in [2] and 5.5 nM at Beta-secretase 1.

As for `C[C@@]1(c2cc(NC(=O)c3ccc(C#N)cn3)ccc2F)Cn2ccnc2C(N)=N1`, at hERG (KCNH2), the inhibition at 3 µM was 76%.

As usually defined, the pKa is the pH at which an ionisable group is half protonated. Consider `C[C@@]1(c2cc(NC(=O)c3ccc(C#N)cn3)ccc2F)Cn2cc(C#N)nc2C(N)=N1`, for which the half-maximal inhibitory concentration (IC50) in data set [2] is 6600 nM; against Beta-secretase 1, 13 nM. The Drug metabolism in data set [4] turned out to be 95%; in data set [6] it was 3%. The same molecule showed a pKa in [5] of 7. Besides, the Ratio in data set [7] worked out at 16.8.

Consider `C[C@@]1(c2cc(NC(=O)c3ccc(F)cn3)ccc2F)Cn2c(C#N)cnc2C(N)=N1`, for which the half-maximal inhibitory concentration (IC50) was 4400 nM against Cytochrome P450 3A4 [1], over 10000 nM in data set [2] and 11.5 nM on Beta-secretase 1. Moreover, the “inhibition (INH)” value at Cytochrome P450 3A4 [3] is on record as “Active”.

With `C[C@@]1(c2cc(NC(=O)c3cnc(C(F)F)cn3)ccc2F)Cn2nc(C#N)cc2C(N)=N1`, the 50% inhibitory concentration (IC50) in [2] is over 10000 nM; on Beta-secretase 1, 3.7 nM. Further, the efflux ratio in the data set on MDR1 was found to be 11.5.

By fraction unbound is commonly meant free concentration divided by total concentration. High values mean much free substance, low ones little free substance. One may read the half-life as the time needed for the level to fall by half in the phase considered. A low value points to rapid decline. One may read the EC50 as the concentration needed to bring the measured effect to its halfway point. As to `C[C@@]1(c2cc(NC(=O)c3ccc(C#N)cn3)ccc2F)Cn2c(C#N)cnc2C(N)=N1`, the fraction unbound at 5 h in [8] came out at 0.15. Besides, the half-maximal inhibitory concentration (IC50) at Cytochrome P450 3A4 [1] was 6700 nM; against Cytochrome P450 3A4 [9], 270 nM; in [2] it was over 10000 nM; at Cytochrome P450 3A4 [11], 1500 nM; against Cytochrome P450 2C19 it was over 10000 nM; on Cytochrome P450 2C8, over 10000 nM. Further, the IC50 against Cytochrome P450 2C9 was over 10000 nM; at Cytochrome P450 1A2, over 10000 nM; against Cytochrome P450 3A4 [3], 6700 nM; against Beta-secretase 1 it was 3.7 nM. This molecule also had a half-life in data set [10] of 8 h. Also, the Drug metabolism was 81% in data set [4] and 34% in data set [6]. The molecule further had a pKa in data set [5] of 7.2. In data set [12], this molecule returned a concentration of 72 nM. The figures for the fraction unbound at 4.5 h in data set [13], in [14] and in data set [16] were 0.06, 0.32 and 0.2, respectively. Further, in the data set with Canis lupus familiaris, the inhibition entry was “inactive”. In addition, the EC50 in data set [15] was 0.03 µg/mL (≈ 0.0724 µM). For the same molecule, the Ratio in data set [7] came to 9.3.

Turning to `C[C@@]1(c2cc(NC(=O)c3ccc(F)cn3)ccc2F)Cn2nc(C#N)cc2C(N)=N1`, the half-maximal inhibitory concentration (IC50) in data set [2] stood at 3300 nM; on Beta-secretase 1, 2.8 nM. Moreover, in the data set on MDR1, the efflux ratio came out at 7.
